Normalised response data for 1 compound are collected here from the supplement of paper PMC4862054.

Structures are written as SMILES.

Common to all, as to test: normalised response (% of control), CellTiter-Glo; higher = more viable cells (100 = DMSO, 0 = benzethonium chloride kill control)
Common to all, as to conditions: incubation time: 72 h

One experiment concerns CAL-148. The gist of the method:
(§1)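 The table gives the normalised signal for a single concentration in each entry. Breast cancer cell lines were seeded (20 µl suspension) into 384-well plates holding compound at 5 concentrations in 10-fold steps over a compound-specific 10,000-fold range and incubated 72 h, then read for CellTox Green fluorescence (485/520 nm) and CellTiter-Glo luminescence. Normalisation on each plate used 0.1 % DMSO (100) and a positive kill control (0).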

The next experiment has as its system CAL-85-1. The gist of the method:
as §1

A further experiment deals with MCF-10A. The gist of the method: as §1
The test system of the next experiment is CAL-51. The gist of the method: as §1
The subject of the next experiment is BT-474. A digest of the protocol: as §1
Another experiment has as its system MDA-MB-231. The gist of the method:
as §1

A further experiment concerns BT-549. A digest of the protocol: as §1
A further experiment concerns CAL-120. A digest of the protocol: as §1
The test system of another experiment is MFM-223. A digest of the protocol:
as §1

The test system of a further experiment is MDA-MB-468. A digest of the protocol:
as §1

The next experiment deals with HDQ-P1. A digest of the protocol: as §1
Another experiment relates to DU-4475. The gist of the method: as §1
For the next experiment, the system named is SK-BR-3. A digest of the protocol: as §1
For a further experiment, the system named is Hs578T. The gist of the method: as §1
A further experiment deals with MDA-MB-453. A digest of the protocol: as §1
Another experiment concerns HCC1143. A digest of the protocol:
as §1

Another experiment concerns MDA-MB-436. A digest of the protocol:
as §1

As for `CCCC(CCC)C(=O)O` [Valproic acid] (10000 nM), the normalised response in the experiment with CAL-148 was determined as 87%; with CAL-85-1, 100%; in the experiment on MCF-10A it was 106%; in the experiment on CAL-51, 95.9%; with BT-474, 102%; with MDA-MB-231, 103%. The normalised response was 107% in the experiment with BT-549; 111% with CAL-120; 96.1% with MFM-223; 95.3% with MDA-MB-468; 102% in the experiment with HDQ-P1; 98.2% with DU-4475. For the same compound, the normalised response with SK-BR-3 turned out to be 96.1%; in the experiment on Hs578T, 99.3%; in the experiment on MDA-MB-453 it was 93.7%; with HCC1143, 108%; with MDA-MB-436, 105%.
